Source: patent US12195427B2, “MASP-2 inhibitors and methods of use” (priority 2018, dated 2025)

Experiments:
MASP-2 CCP2-SP = MASP-2 CCP2-SP (Homo sapiens (Human), UniProt O00187); assay: MASP-2 co-crystallization, X-ray crystallography and structure analysis (H-bonds, van der Waals contacts); design: van der Waals contact distance, MASP-2 HIS 483 atom CD2 / van der Waals contact distance, MASP-2 HIS 483 atom NE2 / van der Waals contact distance, SER 654 C to compound atom / van der Waals contact distance, SER 654 O to compound atom / van der Waals contact distance, TRP 655 C to compound atom / van der Waals contact distance, MASP-2 GLY 528 atom CA / van der Waals contact distance TRP 655 atom CZ3 / van der Waals contact distance TRP 655 atom N / van der Waals contact distance TRP 655 atom CE3 / van der Waals contact distance GLY 656 atom C / van der Waals contact distance GLY 656 atom CA / van der Waals contact distance GLY 656 atom O / van der Waals contact distance, MASP-2 TYR 607 atom CD1 / van der Waals contact distance, MASP-2 PRO 606 atom O / d(C3,CA1) / d(CA1,N1)2 / d(H4,O1) / d(H4,O2) / d(O1,O2) / d(CA1,O2) / d(CA6,O1) / d(CA6,O2) / d(CA1,C5) / d(O2,H3) / d(N2,C2) / d(CA5,N2) / d(N2,C4) / d(N2,C6) / d(N2,CA3) / d(N2,O3) / d(O4,H2): unit not given beside the values; conditions: for H-bond distance to MASP-2 GLY 656 atom N: GLY 656 N; for H-bond distance to MASP-2 GLY 656 atom O: GLY 656 O; for H-bond distance to MASP-2 SER 654 atom O: SER 654 O; for van der Waals contact distance, MASP-2 TYR 607 atom CD1: Table A2-4; for van der Waals contact distance, MASP-2 amino acid atom to compound atom: ARG 630; for van der Waals contact distance TRP 655 atom CE3: MASP-2 TRP 655 CE3, compound atom in line below; for van der Waals contact distance TRP 655 atom CZ3: MASP-2 TRP 655 CZ3; for Ligand-pharmacophore element distance, pharmacophore element C2 / Ligand-pharmacophore element distance, pharmacophore element C3 / Ligand-pharmacophore element distance, pharmacophore element C4 / Ligand-pharmacophore element distance, pharmacophore element C5 / Ligand-pharmacophore element distance, pharmacophore element C6 / Ligand-pharmacophore element distance, pharmacophore element C7 / Ligand-pharmacophore element distance, pharmacophore element CA1 / Ligand-pharmacophore element distance, pharmacophore element CA2 / Ligand-pharmacophore element distance, pharmacophore element CA3 / Ligand-pharmacophore element distance, pharmacophore element CA4 / Ligand-pharmacophore element distance, pharmacophore element CA5 / Ligand-pharmacophore element distance, pharmacophore element CA6: Table A4-1; for d(N2,CA2) / d(O2,H3) / d(O2,N2): Table A5-2 pharmacophore distance, S3/S4 region; for a(O1, O2, H3) / a(O1, O2, N2) / a(O2, N2, CA2): Table A6-2 pharmacophore angle;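 as to Ligand-pharmacophore element distance, pharmacophore element C2: distance from averaged pharmacophore element to bound ligand; missing value means element absent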;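 as to Ligand-pharmacophore element distance, pharmacophore element C3: distance from averaged pharmacophore element to bound ligand; missing value means element absent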;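 as to Ligand-pharmacophore element distance, pharmacophore element C4: distance from averaged pharmacophore element to bound ligand; missing value means element absent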;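 as to Ligand-pharmacophore element distance, pharmacophore element C5: distance from averaged pharmacophore element to bound ligand; missing value means element absent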
Chain of MASP-2 CCP2-SP (O00187 445-686): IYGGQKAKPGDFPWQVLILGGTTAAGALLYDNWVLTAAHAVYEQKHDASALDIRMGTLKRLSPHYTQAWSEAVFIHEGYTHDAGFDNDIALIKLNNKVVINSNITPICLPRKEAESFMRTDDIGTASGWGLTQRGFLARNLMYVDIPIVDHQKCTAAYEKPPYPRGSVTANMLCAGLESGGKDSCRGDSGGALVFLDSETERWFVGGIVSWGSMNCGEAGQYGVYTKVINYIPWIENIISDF
Chain of MASP-2 CCP2-SP (O00187 364-432 partner): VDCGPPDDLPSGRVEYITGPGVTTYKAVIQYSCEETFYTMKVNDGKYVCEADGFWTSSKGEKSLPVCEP
Outline: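 Human MASP-2 CCP2-SP, untagged or 6His-tagged, was expressed in E. coli and crystallized. Crystals were soaked with inhibitor in crystallization solution, flash-cooled in liquid nitrogen, and diffracted with synchrotron X-rays (wavelength 1.0). Structures were solved by molecular replacement from 1Q3X and partially refined.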

Lectin Pathway = Lectin Pathway Activation Assay in Human Serum (mannan-coated ELISA, C3c detection); assay type: biochemical; conditions: 1% human serum
Protocol: Microtiter ELISA plate was coated with mannan from Saccharomyces cerevisiae (Sigma-Aldrich, M7504) for overnight at 4° C. in coating buffer [15 mM Na2CO3, 35 mM NaHCO3].

[1] = Table A5-1 pharmacophore: distance between elements, S2/S1 region
[2] = Table A7-1, between pharmacophore elements of the bound compound
[3] = Table A7-2, between pharmacophore elements of the bound compound

## C[C@H](NC(=O)[C@H]1C[C@H](Cc2ccccc2)CN1)C(=O)NCc1cnc2[nH]cc(Cl)c2c1 [compound 1334, (2R,4S)-4-Benzyl-N—((S)-1-(((3-chloro-1H-pyrrolo[2,3-b]pyridin-5-yl)methyl)amino)-1-oxopropan-2-yl)pyrrolidine-2-carboxamide]
MASP-2 CCP2-SP; Table A1 (H-Bonds)
  H-bond distance to MASP-2 GLY 656 atom N: 3.16
  H-bond distance to MASP-2 GLY 656 atom O: 2.83
  H-bond distance to MASP-2 SER 654 atom O: 2.81
MASP-2 CCP2-SP; Table A2-1
  van der Waals contact distance, MASP-2 HIS 483 atom CD2: 3.66
  van der Waals contact distance, MASP-2 HIS 483 atom CE1: 3.84
MASP-2 CCP2-SP; Table A2-3
  van der Waals contact distance, MASP-2 PHE 529 atom CD2: 3.73
MASP-2 CCP2-SP
  van der Waals contact distance, MASP-2 TYR 607 atom CD1: 3.81
  Ligand-pharmacophore element distance, pharmacophore element C2: 0
  Ligand-pharmacophore element distance, pharmacophore element C3: 0
  Ligand-pharmacophore element distance, pharmacophore element C4: 0
  Ligand-pharmacophore element distance, pharmacophore element C5: 0.34
  Ligand-pharmacophore element distance, pharmacophore element C6: 0
  Ligand-pharmacophore element distance, pharmacophore element C7: 0
  Ligand-pharmacophore element distance, pharmacophore element CA1: 1.04
  Ligand-pharmacophore element distance, pharmacophore element CA2: 0.7
  Ligand-pharmacophore element distance, pharmacophore element CA3: 0
  Ligand-pharmacophore element distance, pharmacophore element CA4: 0
  Ligand-pharmacophore element distance, pharmacophore element CA5: 0
  Ligand-pharmacophore element distance, pharmacophore element CA6: 0
  d(N2,CA2): 6.09
  d(O2,H3): 2.99
  d(O2,N2): 2.77
  a(O1, O2, H3): 136.63
  a(O1, O2, N2): 143.82
  a(O2, N2, CA2): 155.99
MASP-2 CCP2-SP; Table A2-9, AA atoms CG, CZ
  van der Waals contact distance, MASP-2 amino acid atom to compound atom: 3.89
MASP-2 CCP2-SP; Table A2-9 second part, AA atoms N, NE, NH1
  van der Waals contact distance, MASP-2 amino acid atom to compound atom: 3.59
MASP-2 CCP2-SP; Table A2-13
  van der Waals contact distance TRP 655 atom CE3: 3.66
  van der Waals contact distance TRP 655 atom CZ3: 3.67
MASP-2 CCP2-SP; Table A2-13, MASP-2 TRP 655 N
  van der Waals contact distance TRP 655 atom N: 3.68
MASP-2 CCP2-SP; [1]
  d(CA1,C5): 3.47
  d(CA1,O1): 5.33
  d(CA1,O2): 4.84
  d(CA1,O4): 1.75
  d(H4,O1): 3.14
  d(H4,O2): 3.74
  d(O1,O2): 3.24
MASP-2 CCP2-SP; Table A6-1 pharmacophore angle
  a(C5, CA1, O1): 150.49
  a(CA1, O1, O2): 100.10
  a(O1, CA1, O4): 68.25
  a(O1, O2, H4): 124.74
MASP-2 CCP2-SP; [2]
  Pharmacophore torsion angle a(C5, CA1, O1, H4): 2.51
  Pharmacophore torsion angle a(H4, O1, O2, H3): 110.57
  Pharmacophore torsion angle a(H4, O1, O2, N2): −172.73
  Pharmacophore torsion angle a(O1, H4, O2, CA1): −93.67
MASP-2 CCP2-SP; [3]
  Pharmacophore torsion angle a(O1, O2, N2, CA2): 133.84
Lectin Pathway
  IC50: 0.05 to 0.5 µM

## Cc1cc(Cl)cc(CNC(=O)[C@H](C)NC(=O)[C@H]2C[C@H](Cc3ccccc3)CN2)c1O [compound 1307, (2R,4S)-4-Benzyl-N—((S)-1-((5-chloro-2-hydroxy-3-methylbenzyl)amino)-1-oxopropan-2-yl)pyrrolidine-2-carboxamide]
MASP-2 CCP2-SP; Table A1 (H-Bonds)
  H-bond distance to MASP-2 GLY 656 atom N: 2.95
  H-bond distance to MASP-2 GLY 656 atom O: 2.86
  H-bond distance to MASP-2 SER 654 atom O: 2.91
MASP-2 CCP2-SP; Table A2-1
  van der Waals contact distance, MASP-2 HIS 483 atom NE2: 3.5
MASP-2 CCP2-SP; Table A2-2
  van der Waals contact distance, MASP-2 GLY 528 atom CA: 3.75
MASP-2 CCP2-SP; Table A2-3
  van der Waals contact distance, MASP-2 PHE 529 atom CD2: 3.69
  van der Waals contact distance, MASP-2 PHE 529 atom CZ: 3.86
MASP-2 CCP2-SP
  van der Waals contact distance, MASP-2 TYR 607 atom CD1: 3.83
  Ligand-pharmacophore element distance, pharmacophore element C2: 0
  Ligand-pharmacophore element distance, pharmacophore element C3: 0
  Ligand-pharmacophore element distance, pharmacophore element C4: 0
  Ligand-pharmacophore element distance, pharmacophore element C5: 0.37
  Ligand-pharmacophore element distance, pharmacophore element C6: 0
  Ligand-pharmacophore element distance, pharmacophore element C7: 0.76
  Ligand-pharmacophore element distance, pharmacophore element CA1: 1.55
  Ligand-pharmacophore element distance, pharmacophore element CA2: 0.17
  Ligand-pharmacophore element distance, pharmacophore element CA3: 0
  Ligand-pharmacophore element distance, pharmacophore element CA4: 0
  Ligand-pharmacophore element distance, pharmacophore element CA5: 0
  Ligand-pharmacophore element distance, pharmacophore element CA6: 0
  d(N2,CA2): 6.14
  d(O2,H3): 2.09
  d(O2,N2): 2.81
  a(O1, O2, H3): 129.22
  a(O1, O2, N2): 142.81
  a(O2, N2, CA2): 155.37
MASP-2 CCP2-SP; Table A2-11
  van der Waals contact distance, SER 654 C to compound atom: 3.79
  van der Waals contact distance, VAL 653 CG1 to compound atom: 3.47
MASP-2 CCP2-SP; Table A2-13
  van der Waals contact distance TRP 655 atom CE3: 3.75
  van der Waals contact distance TRP 655 atom CZ3: 3.76
MASP-2 CCP2-SP; [1]
  d(CA1,C5): 3.13
  d(CA1,O1): 4.60
  d(CA1,O2): 4.57
  d(CA1,O4): 2.74
  d(H4,O1): 3.15
  d(H4,O2): 3.80
  d(O1,O2): 3.17
  d(O4,H2): 0.98
MASP-2 CCP2-SP; Table A6-1 pharmacophore angle
  a(C5, CA1, O1): 161.35
  a(CA1, O1, O2): 109.57
  a(CA1, O4, H2): 127.11
  a(O1, CA1, C7): 121.00
  a(O1, CA1, O4): 66.49
  a(O1, O2, H4): 126.83
MASP-2 CCP2-SP; [2]
  Pharmacophore torsion angle a(C5, CA1, O1, H4): −6.78
  Pharmacophore torsion angle a(C7, CA1, O1, H4): −161.01
  Pharmacophore torsion angle a(H4, O1, O2, H3): −163.22
  Pharmacophore torsion angle a(H4, O1, O2, N2): −170.13
  Pharmacophore torsion angle a(O1, H4, O2, CA1): −88.47
MASP-2 CCP2-SP; [3]
  Pharmacophore torsion angle a(O1, O2, N2, CA2): 138.35
Lectin Pathway
  IC50: 0.05 to 0.5 µM

## Cc1nc(N)ccc1CNC(=O)[C@H](C)NC(=O)[C@H]1C[C@H](Cc2ccc(-c3ccccc3)cc2)CN1 [compound 1351, (2R,4S)-4-([1,1′-Biphenyl]-4-ylmethyl)-N—((S)-1-(((6-amino-2-methylpyridin-3-yl)methyl)amino)-1-oxopropan-2-yl)pyrrolidine-2-carboxamide]
MASP-2 CCP2-SP; Table A1 (H-Bonds), ASP 627 OD2
  H-bond distance to MASP-2 ASP 627 atom OD2: 3.22
MASP-2 CCP2-SP; Table A1 (H-Bonds)
  H-bond distance to MASP-2 GLY 656 atom N: 3.25
  H-bond distance to MASP-2 GLY 656 atom O: 2.76
  H-bond distance to MASP-2 SER 654 atom O: 2.98
MASP-2 CCP2-SP; Table A1 (H-Bonds), SER 657 O
  H-bond distance to MASP-2 SER 657 atom O: 2.8
MASP-2 CCP2-SP; Table A2-1
  van der Waals contact distance, MASP-2 HIS 483 atom CD2: 3.66
  van der Waals contact distance, MASP-2 HIS 483 atom NE2: 3.9
MASP-2 CCP2-SP; Table A2-2
  van der Waals contact distance, MASP-2 ALA 527 atom CA: 3.71
MASP-2 CCP2-SP; Table A2-3
  van der Waals contact distance, MASP-2 PHE 529 atom CE1: 3.8
MASP-2 CCP2-SP; Table A2-9, AA atoms CG, CZ
  van der Waals contact distance, MASP-2 amino acid atom to compound atom: 3.81
MASP-2 CCP2-SP; Table A2-11
  van der Waals contact distance, VAL 653 CG1 to compound atom: 3.3
MASP-2 CCP2-SP; Table A2-12
  van der Waals contact distance, TRP 655 CA to compound atom: 3.34
MASP-2 CCP2-SP
  Ligand-pharmacophore element distance, pharmacophore element C2: 0
  Ligand-pharmacophore element distance, pharmacophore element C3: 0.12
  Ligand-pharmacophore element distance, pharmacophore element C4: 0
  Ligand-pharmacophore element distance, pharmacophore element C5: 0
  Ligand-pharmacophore element distance, pharmacophore element C6: 0
  Ligand-pharmacophore element distance, pharmacophore element C7: 0
  Ligand-pharmacophore element distance, pharmacophore element CA1: 0.57
  Ligand-pharmacophore element distance, pharmacophore element CA2: 0.8
  Ligand-pharmacophore element distance, pharmacophore element CA3: 0
  Ligand-pharmacophore element distance, pharmacophore element CA4: 3.3
  Ligand-pharmacophore element distance, pharmacophore element CA5: 0
  Ligand-pharmacophore element distance, pharmacophore element CA6: 0
  d(N2,CA2): 6.12
  d(O2,H3): 4.26
  d(O2,N2): 2.76
  a(O1, O2, H3): 148.60
  a(O1, O2, N2): 141.59
  a(O2, N2, CA2): 158.04
MASP-2 CCP2-SP; [1]
  d(C3,CA1): 2.85
  d(CA1,N1)2: 1.38
  d(CA1,O1): 4.47
  d(CA1,O2): 3.79
  d(H4,O1): 4.47
  d(H4,O2): 3.70
  d(O1,O2): 3.38
MASP-2 CCP2-SP; Table A6-1 pharmacophore angle
  a(C3, CA1, O1): 149.86
  a(CA1, O1, O2): 103.11
  a(O1, O2, H4): 132.32
MASP-2 CCP2-SP; Table A6-1 pharmacophore angle, Methyl-amino-pyridine compounds
  a(N1, CA1, O1) b): 173.60
MASP-2 CCP2-SP; [2]
  Pharmacophore torsion angle a(C3, CA1, O1, H4): 26.55
  Pharmacophore torsion angle a(H4, O1, O2, H3): 51.88
  Pharmacophore torsion angle a(H4, O1, O2, N2): 138.69
  Pharmacophore torsion angle a(N1, CA1, O1, H4): −0.13
  Pharmacophore torsion angle a(O1, H4, O2, CA1): −83.97
MASP-2 CCP2-SP; [3]
  Pharmacophore torsion angle a(O1, O2, N2, CA2): 121.52
  Pharmacophore torsion angle a(O1, O2, N2, CA4): 119.61
Lectin Pathway
  IC50: < 0.05 µM
